Test results from patent US8822464B2, “N-aryl-piperazine derivatives and their use as positive allosteric modulators of mGluR5 receptors” (Boehringer Ingelheim International GmbH, priority 2011, dated 2014).

Target: T1, human recombinant mGluR5 (Homo sapiens, UniProt P41594)
T1 construct: expressed in transfected cells; host or cells: HEK 293 cell line; cultured with tetracycline, hygromycin and geneticin; tetracycline withdrawn 3-7 days before the assay
Assay: positive modulation of mGluR5, calcium based FLIPR assay in HEK 293 cells
Conditions: HEK 293 cell line expressing human recombinant mGluR5; peak height of Ca release fluorescence signal after glutamate at approximately 5% basal stimulation; nonlinear regression
Method: The positive modulation of mGluR5 is measured in a HEK 293 cell line expressing human recombinant mGluR5 and is detected with calcium based FLIPR assay. The cells are cultured with DMEM supplemented with 10% FCS, 2 μg/mL tetracycline, 100 μg/mL hygromycin and 500 μg/mL gneticin. The cell culture media is exchanged for tetracycline-free cell culture media 3-7 days before the assay. One day before the assay the cell culture medium is exchanged to DMEM without glutamine and phenol red and supplemented with 10% FCS, 100 μg/mL hygromycin and 500 μg/mL geneticin. On the assay day, the medium of the subconfluent cultures is removed and the cells are detached by addition of 2.5 ml EDTA(0.02%) per 175 cm2 culture flask for 1 minute. The cells are resuspend in Ringer solution (140 mM NaCl, 5 mM KCl, 2.5 mM CaCl2, 1.5 mM MgCl2, 5 mM Glucose, 10 mM Hepes; adjusted to pH 7.4 with NaOH), pooled and Ringer solution added to adjust the volume to 50 mL. The cell suspension is centrifuged for 5 min at 1500 U/min (425 g). The supernatant is removed and the cells washed a second time with 50 ml fresh Ringer solution and centrifuged again as before. The supernatant is again removed and the pellet resuspended in Ringer solution to 1,000,000 cells/ml (1×10^6 cells/mL). The cells are plated onto BD BioCoat Poly-D-Lysine 384 well plates (20.000 cells/well; 20 μl/well). The lid covered plates are then incubated until use at 37° C./10% CO2. For dye loading, 20 μl of Calcium-4 assay kit solution (prepared according to the manufacturer's description in Ringer solution) are added to the cells and the plates are incubated for 80 min 37° C. and then 10 min at room temperature.
Controls, Compound Dilution and Assay Execution:
Each assay plate contained wells with “high” and “low” controls:
Low controls 1% DMSO/ringer solution+basal glutamate activation (defined as 100% CTL).
High controls 10 μM CDPPB+basal glutamate activation (defined as 200% CTL).
Test compounds are dissolved and diluted in DMSO to 100-fold the desired concentrations. In a second step, the compounds are diluted in Ringer solution such that the compounds are 4-fold more concentrated than the desired final assay concentration. The final DMSO concentration was 1%.
20 μl of each compound solution are then transferred to the assay plate and the Ca2+ kinetic is measured to determine any intrinsic compound activity. After 5 min incubation in the FLIPR device, the second stimulation with 20 μl of glutamate in Ringer solution (glutamate concentration adjusted to approximately 5% basal stimulation of the maximal possible glutamate effect) is added and the kinetic Ca2+ response of the wells was measured for the modulation effect.
The peak height of the Ca release related fluorescence signal (9-66) is used for the EC50. The EC50 of the modulation is calculated over a nonlinear regression with GraphPad Prism (Table 1).

T1 sequence (P41594 21-1212): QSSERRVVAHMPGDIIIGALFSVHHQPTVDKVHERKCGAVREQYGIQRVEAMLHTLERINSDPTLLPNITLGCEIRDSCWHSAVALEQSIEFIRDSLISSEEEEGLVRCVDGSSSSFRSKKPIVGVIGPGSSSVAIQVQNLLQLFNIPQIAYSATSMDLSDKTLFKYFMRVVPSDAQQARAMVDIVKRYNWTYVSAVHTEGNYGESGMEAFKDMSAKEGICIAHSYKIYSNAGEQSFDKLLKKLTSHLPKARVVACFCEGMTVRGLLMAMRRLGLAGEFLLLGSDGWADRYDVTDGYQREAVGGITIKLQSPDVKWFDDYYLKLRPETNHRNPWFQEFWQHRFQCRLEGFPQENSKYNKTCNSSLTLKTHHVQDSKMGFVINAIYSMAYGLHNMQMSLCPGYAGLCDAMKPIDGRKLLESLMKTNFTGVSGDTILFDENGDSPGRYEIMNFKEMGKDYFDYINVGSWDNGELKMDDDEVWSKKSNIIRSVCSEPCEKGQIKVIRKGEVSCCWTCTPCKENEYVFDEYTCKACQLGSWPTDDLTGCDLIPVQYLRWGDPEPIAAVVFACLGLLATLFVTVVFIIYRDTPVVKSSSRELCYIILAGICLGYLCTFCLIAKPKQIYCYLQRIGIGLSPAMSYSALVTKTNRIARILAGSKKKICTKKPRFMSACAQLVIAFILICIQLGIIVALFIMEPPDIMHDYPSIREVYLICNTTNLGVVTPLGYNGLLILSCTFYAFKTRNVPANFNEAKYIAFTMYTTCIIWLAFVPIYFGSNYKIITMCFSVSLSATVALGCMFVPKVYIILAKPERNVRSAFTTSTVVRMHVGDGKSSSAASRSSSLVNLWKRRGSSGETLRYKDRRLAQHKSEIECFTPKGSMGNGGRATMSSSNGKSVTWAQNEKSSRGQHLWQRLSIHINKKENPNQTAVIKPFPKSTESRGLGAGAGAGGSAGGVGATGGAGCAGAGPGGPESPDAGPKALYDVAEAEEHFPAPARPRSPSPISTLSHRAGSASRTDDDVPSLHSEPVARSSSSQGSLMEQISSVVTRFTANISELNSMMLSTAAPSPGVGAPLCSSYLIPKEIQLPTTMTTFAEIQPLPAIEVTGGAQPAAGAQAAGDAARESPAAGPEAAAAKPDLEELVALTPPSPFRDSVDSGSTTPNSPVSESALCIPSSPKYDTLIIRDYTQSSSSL

Structure (SMILES) | EC50 [nM]
O=C(Cn1nc(-c2ccccc2)cc1-c1ccccc1)N1CCN(c2ccccc2)CC1 [Example 7.02.04] | 393
CCc1cccc(-c2cc(CC)n(CC(=O)N3CCN(c4ncc(OC)cn4)CC3)n2)c1 [Example 7.01.132] | 138
CCc1cc(-c2ccc(F)cc2)nn1CC(=O)N1CCN(c2cc(OC)ncn2)CC1 [Example 7.01.77] | 697
Cc1cc(-c2cc(-c3ccccc3)n(CC(=O)N3CCN(c4ccccn4)CC3)n2)ncc1F [Example 7.01.158] | 79
CCc1cc(-c2ccc(F)cc2)nn1CC(=O)N1CCN(c2ccccn2)CC1 [Example 7.01.73] | 419
O=C(Cn1nc(-c2ccccc2)cc1-c1ccccc1)N1CCN(c2ncc(Br)cn2)CC1 [Example 7.02.11] | 91
COc1cc(N2CCN(C(=O)Cn3nc(-c4ccc(C)c(C)c4)cc3-c3ccccc3)CC2)ncn1 [Example 7.01.101] | 17
COc1cc(N2CCN(C(=O)Cn3nc(-c4ccc(OC(F)F)cn4)cc3-c3ccccc3)CC2)ncn1 [Example 7.01.180] | 64
O=C(Cn1nc(-c2ccccc2)cc1-c1ccccc1)N1CCN(c2ncccn2)CC1 [Example 7.02.01, 2-(3,5-diphenyl-pyrazol-1-yl)-1-(4-(2-pyrimidinyl)-1-piperazinyl)-ethanon] | 35
O=C(Cn1nc(-c2ccccc2)cc1-c1ccccc1)N1CCN(c2cc3ccccc3cn2)CC1 [Example 7.02.07] | 853
Cc1cc(-c2cc(CC(C)C)n(CC(=O)N3CCN(c4ncccn4)CC3)n2)ccc1F [Example 7.01.118] | 18
CCc1cc(-c2cc(C)c(F)c(C)c2)nn1CC(=O)N1CCN(c2ncccn2)CC1 [Example 7.01.138] | 230
CCc1cc(-c2cccc(C)c2)nn1CC(=O)N1CCN(c2cc(OC)ccn2)CC1 [Example 7.01.96] | 168
Cc1cc(-c2cc(C3CC3)n(CC(=O)N3CCN(c4cccnn4)CC3)n2)ccc1F [Example 7.01.43] | 725
COc1ccc(-c2cc(-c3ccccc3)n(CC(=O)N3CCN(c4ncccn4)CC3)n2)cc1C [Example 7.01.177] | 24
COCCCc1cc(-c2ccc(F)c(C)c2)nn1CC(=O)N1CCN(c2ncccn2)CC1 [Example 7.01.107] | 64
N#Cc1cccc(-c2cc(-c3ccccc3)n(CC(=O)N3CCN(c4ccccn4)CC3)n2)c1 [Example 7.01.168] | 12
CCCc1cc(-c2ccc(F)c(C)n2)nn1CC(=O)N1CCN(c2ncccn2)CC1 [Example 7.01.185] | 442
COc1cccc(-c2cc(C3CCCCC3)n(CC(=O)N3CCN(c4ncccn4)CC3)n2)c1 [Example 7.01.17] | 117
COc1ccnc(N2CCN(C(=O)Cn3nc(-c4ccc(F)cc4)cc3C(C)C)CC2)c1 [Example 7.01.85] | 371

Structure (SMILES) | EC50 [nM]
CCc1cc(-c2cccc(Cl)c2)nn1CC(=O)N1CCN(c2ncccn2)CC1 [Example 7.01.113] | 94
O=C(Cn1nc(-c2ccccc2)cc1-c1ccccc1)N1CCN(c2nccc3ccccc23)CC1 [Example 7.01.07] | 621
N#Cc1cccnc1N1CCN(C(=O)Cn2nc(-c3ccccc3)cc2-c2ccccc2)CC1 [Example 7.02.09] | 298
Cc1ccc(-c2cc(-c3ccccc3)n(CC(=O)N3CCN(c4ncccn4)CC3)n2)nc1 [Example 7.01.111] | 24
CCc1cc(-c2cccc(Cl)c2)nn1CC(=O)N1CCN(c2ncc(OC)cn2)CC1 [Example 7.01.115] | 65
CCc1cc(-c2ccc(F)c(C)c2)nn1CC(=O)N1CCN(c2ncc(OC)cn2)CC1 [Example 7.01.71] | 51
COc1ccc(-c2cc(C(C)C)n(CC(=O)N3CCN(c4cc(OC)ncn4)CC3)n2)cc1 [Example 7.01.23] | 221
CCc1cc(-c2cccc(C)c2)nn1CC(=O)N1CCN(c2ncc(OC)cn2)CC1 [Example 7.01.100] | 126
CCCc1cc(-c2ccc(F)c(C)c2)nn1CC(=O)N1CCN(c2cccnn2)CC1 [Example 7.01.84] | 67
O=C(Cn1nc(-c2cccc(Cl)c2)cc1-c1ccccc1)N1CCN(c2ncccn2)CC1 [Example 7.01.149] | 12
O=C(Cn1nc(-c2ccccc2)cc1-c1ccccc1)N1CCN(c2ccc(Cl)nn2)CC1 [Example 7.01.12] | 216
CCc1cc(-c2cccc(Cl)c2)nn1CC(=O)N1CCN(c2cc(OC)ncn2)CC1 [Example 7.01.116] | 89
O=C(Cn1nc(-c2ccccc2)cc1-c1ccccc1)N1CCN(c2cccnc2)CC1 [Example 7.02.06] | 581
Cc1cc(-c2cc(C(C)C)n(CC(=O)N3CCN(c4ccccn4)CC3)n2)ccc1F [Example 7.01.26] | 138
O=C(Cn1nc(-c2ccc(F)cn2)cc1-c1ccc(F)cc1)N1CCN(c2ncccn2)CC1 [Example 7.01.62] | 48
Cc1nc(-c2cc(-c3ccccc3)n(CC(=O)N3CCN(c4ccccn4)CC3)n2)ccc1F [Example 7.01.155] | 24
O=C(Cn1nc(-c2ccccc2F)cc1-c1ccccc1F)N1CCN(c2ncccn2)CC1 [Example 7.04.01] | 696
COc1ccc(-c2cc(C(C)C)n(CC(=O)N3CCN(c4ncccn4)CC3)n2)cc1 [Example 7.01.19] | 86
COc1cc(N2CCN(C(=O)Cn3nc(-c4cccc(C)c4)cc3-c3ccccc3)CC2)ncn1 [Example 7.01.173] | 11
COc1cccc(N2CCN(C(=O)Cn3nc(-c4ccc(F)c(C)c4)cc3-c3ccccc3)CC2)c1 [Example 7.01.144] | 57

Structure (SMILES) | EC50 [nM]
COc1cnc(N2CCN(C(=O)Cn3nc(-c4ccc(F)c(C)c4)cc3CC(C)C)CC2)nc1 [Example 7.01.123] | 36
COc1cc(-c2cc(C(C)C)n(CC(=O)N3CCN(c4ncccn4)CC3)n2)ccc1F [Example 7.01.51] | 485
COCCCc1cc(-c2ccc(F)c(C)c2)nn1CC(=O)N1CCN(c2cc(OC)ccn2)CC1 [Example 7.01.109] | 140
Cc1ccc(-c2cc(-c3ccccc3)n(CC(=O)N3CCN(c4ccccn4)CC3)n2)cc1C [Example 7.01.102] | 20
Cc1cc(-c2cc(C(C)C)n(CC(=O)N3CCN(c4cccnn4)CC3)n2)ccc1F [Example 7.01.29] | 158
CCc1cc(-c2ccc(F)c(C)c2)nn1CC(=O)N1CCN(c2cc(OC)ccn2)CC1 [Example 7.01.68] | 74
O=C(Cn1nc(-c2ccccc2)cc1-c1ccccc1)N1CCN(c2ccccn2)CC1 [Example 7.02.03] | 29
COc1cc(N2CCN(C(=O)Cn3nc(-c4ccc(C(F)F)cc4)cc3-c3ccccc3)CC2)ncn1 [Example 7.01.192] | 15
CCCc1cc(-c2ccc(F)c(C)n2)nn1CC(=O)N1CCN(c2cc(OC)ncn2)CC1 [Example 7.01.187] | 360
CCCc1cc(-c2ccc(F)c(C)c2)nn1CC(=O)N1CCN(c2ncccn2)CC1 [Example 7.01.81] | 13
O=C(Cn1nc(-c2ccc(F)cn2)cc1-c1ccccc1)N1CCN(c2cccnn2)CC1 [Example 7.01.60] | 1230
CCc1cc(-c2cccc(C)c2)nn1CC(=O)N1CCN(c2ccccn2)CC1 [Example 7.01.95] | 237
CCc1cc(-c2ccc(C)c(C)c2)nn1CC(=O)N1CCN(c2cc(OC)ncn2)CC1 [Example 7.01.93] | 170
CCc1cc(-c2ccc(C)c(C)c2)nn1CC(=O)N1CCN(c2ncc(OC)cn2)CC1 [Example 7.01.99] | 129
CCc1cc(-c2ccc(F)cc2)nn1CC(=O)N1CCN(c2cc(OC)ccn2)CC1 [Example 7.01.75] | 421
Cc1cc(-c2cc(C)n(CC(=O)N3CCN(c4ncccn4)CC3)n2)ccc1F [Example 7.01.104] | 39
COc1cnc(N2CCN(C(=O)Cn3nc(-c4ccc(F)cc4)cc3C(C)C)CC2)nc1 [Example 7.01.89] | 577
COc1cc(N2CCN(C(=O)Cn3nc(-c4ccc(OC(F)F)cc4)cc3-c3ccccc3)CC2)ncn1 [Example 7.01.176] | 10
Cc1ccnc(N2CCN(C(=O)Cn3nc(-c4ccc(F)c(C)c4)cc3C3CCCCC3)CC2)c1 [Example 7.01.33] | 161
CCc1cc(-c2cccc(C#N)c2)nn1CC(=O)N1CCN(c2ncc(OC)cn2)CC1 [Example 7.01.162] | 343
